# Patent US9422240B2, “Partially saturated nitrogen-containing heterocyclic compound” (TAISHO PHARMACEUTICAL CO., LTD, priority 2012, dated 2016)
# Target: human PHD2 (Homo sapiens (Human), UniProt Q9GZT9)
# Assay: Test 2: human PHD2 inhibitory activity, fluorescence polarization assay of HIF-1α peptide proline hydroxylation
# Type: biochemical
# Details: human PHD2, fluorescence polarization assay, 20-min incubation at 30° C.
# Method: (1) Expression and Preparation of Human PHD2
# A registered sequence of human PHD2 (NM_022051) was introduced into pcDNA3.1/Hygro(+) vector (Invitrogen), and the sequence was verified. […] The suspension of disrupted cells was centrifuged at 4° C. and 100,000×g for 30 minutes and the supernatant was recovered as a cell lysate.
# (2) Measurement of Human PHD2 Inhibitory Activity
# The activity of human PHD2 enzyme was measured with a substrate which is a 19-residue partial peptide based on the sequence of HIF-1α; specifically, the hydroxylation of a proline residue in the peptide was measured by FP (Fluorescence Polarization).
# A test compound and the substrate solution were preliminarily added onto 384-well plates and reaction was initiated by adding a human PHD2 enzyme solution (40 ng/well). After 20-min incubation at 30° C., an EDTA-containing quench solution was added and the amount of the proline residues hydroxylated via binding to an added HIF—OH antibody solution was quantified by fluorescence polarization.
# The fluorescence polarization of each well was measured and the human PHD2 inhibitory activity of each test compound was calculated on the basis of the values for the test compound-free group.
# human PHD2, sequence (Q9GZT9 whole entry): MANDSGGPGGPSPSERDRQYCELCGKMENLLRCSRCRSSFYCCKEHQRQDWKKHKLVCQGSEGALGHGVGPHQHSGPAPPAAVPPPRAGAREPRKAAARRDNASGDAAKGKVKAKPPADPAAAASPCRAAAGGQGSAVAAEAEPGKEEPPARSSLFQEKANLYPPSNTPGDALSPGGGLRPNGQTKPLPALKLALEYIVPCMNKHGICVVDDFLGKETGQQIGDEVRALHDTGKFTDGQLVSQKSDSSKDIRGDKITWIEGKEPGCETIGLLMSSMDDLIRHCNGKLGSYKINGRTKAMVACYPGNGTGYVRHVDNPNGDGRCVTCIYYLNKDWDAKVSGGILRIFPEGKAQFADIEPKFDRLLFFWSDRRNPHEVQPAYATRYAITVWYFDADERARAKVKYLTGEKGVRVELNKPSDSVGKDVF
row,Compound,IC50 [nM]
1,O=C(O)CNC(=O)C1=C(O)CCN(Cc2ccc(Oc3ncccn3)cc2)C1=O [Ex. 1-226],409
2,Cc1ccc(Oc2ncc(CN3CCC(O)=C(C(=O)NCC(=O)O)C3=O)cc2C)cn1 [Ex. 1-333],92

# Continued, values first:
row,IC50 [nM],Compound
1,61,COc1cccc(Oc2ccc(CN3CCC(O)=C(C(=O)NCC(=O)O)C3=O)cn2)c1 [Ex. 1-354]
2,60,O=C(O)CNC(=O)C1=C(O)CCN(Cc2ccc(Oc3ccc(C(F)(F)F)cc3)cn2)C1=O [Ex. 1-356]
3,56,O=C(O)CNC(=O)C1=C(O)CCN(Cc2ccc(Oc3ccc(C(F)(F)F)nc3)cc2)C1=O [Ex. 1-365]
4,19,Cc1ccc(Oc2ccc(CN3CCC(O)=C(C(=O)NCC(=O)O)C3=O)cn2)cc1Cl [Ex. 1-366]
5,26,Cc1ccc(Oc2ccc(CN3CCC(O)=C(C(=O)NCC(=O)O)C3=O)cn2)cc1F [Ex. 1-367]
6,41,Cc1cc(Oc2ccc(CN3CCC(O)=C(C(=O)NCC(=O)O)C3=O)cn2)ccc1F [Ex. 1-368]
7,22,CCc1ccc(Oc2ccc(CN3CCC(O)=C(C(=O)NCC(=O)O)C3=O)cn2)cc1 [Ex. 1-376]
8,15,CCCc1ccc(Oc2ccc(CN3CCC(O)=C(C(=O)NCC(=O)O)C3=O)cn2)cc1 [Ex. 1-377]
9,14,CC(C)c1ccc(Oc2ccc(CN3CCC(O)=C(C(=O)NCC(=O)O)C3=O)cn2)cc1 [Ex. 1-378]

# Same assay, conditions: test compound's concentration 1 μM; Test 2, fluorescence polarization assay; read-out: Percent inhibition (% at 1 μM)
row,Compound,inhibition at 1 µM [%]
1,O=C(O)CNC(=O)C1=C(O)CCN(Cc2ccc(Oc3ncccn3)cc2)C1=O [Ex. 1-226],84
2,O=C(O)CNC(=O)C1=C(O)CCN(CC2CCN(C(=O)OCc3ccccc3)CC2)C1=O [Ex. 1-248],94
3,O=C(O)CNC(=O)C1=C(O)CCNC1=O [Ex. 1-308],41
4,CN1CCC(O)=C(C(=O)NCC(=O)O)C1=O [Ex. 1-309],58
5,O=C(O)CNC(=O)C1=C(O)CC2(CCCCC2)CN(Cc2ccccc2)C1=O [Ex. 1-310],59
6,O=C(O)CNC(=O)C1=C(O)CC2(CCNCC2)N(Cc2ccc(-c3ccccc3)cc2)C1=O [Ex. 1-311],83
7,O=C(O)CNC(=O)C1=C(O)CC2(CCCCC2)CN(Cc2ccc(-c3ccccc3)cc2)C1=O [Ex. 1-312],86
8,O=C(O)CNC(=O)C1=C(O)CC2(CNC2)N(Cc2ccc(-c3ccccc3)cc2)C1=O [Ex. 1-313],96
9,O=C(O)CNC(=O)C1=C(O)CC2(CNC(=O)C2)N(Cc2ccc(-c3ccccc3)cc2)C1=O (centres unmarked) [Ex. 1-314],86
10,CN1CC2(CC1=O)CC(O)=C(C(=O)NCC(=O)O)C(=O)N2Cc1ccc(-c2ccccc2)cc1 (centres unmarked) [Ex. 1-315],81
11,O=C(O)CNC(=O)C1=C(O)CCN(Cc2ccc(-c3cncnc3)cc2)C1=O [Ex. 1-316],87
12,CCCCCCCCCN1CCC(O)=C(C(=O)NCC(=O)O)C1=O [Ex. 1-317],85
13,O=C(O)CNC(=O)C1=C(O)CN(Cc2ccc(-c3ccccc3)cc2)C1=O [Ex. 1-318],96
14,CC(C)CN1CCC(O)=C(C(=O)NCC(=O)O)C1=O [Ex. 1-319],42
15,O=C(O)CNC(=O)C1=C(O)CCN(Cc2cncnc2)C1=O [Ex. 1-320],57
16,O=C(O)CNC(=O)C1=C(O)CCN(Cc2ccc(C(=O)N3CCCCC3)cc2)C1=O [Ex. 1-321],84
17,CCCNC(=O)c1ccc(CN2CCC(O)=C(C(=O)NCC(=O)O)C2=O)cc1 [Ex. 1-322],77
18,CC1C(O)=C(C(=O)NCC(=O)O)C(=O)N1Cc1ccc(-c2ccccc2)cc1 (centres unmarked) [Ex. 1-323],87
19,CC1(C)C(O)=C(C(=O)NCC(=O)O)C(=O)N1Cc1ccc(-c2ccccc2)cc1 [Ex. 1-324],91
20,O=C(O)CNC(=O)C1=C(O)C2(CCCCC2)N(Cc2ccc(-c3ccccc3)cc2)C1=O [Ex. 1-325],90
21,O=C(O)CNC(=O)C1=C(O)C(c2ccccc2)N(Cc2ccc(-c3ccccc3)cc2)C1=O (centres unmarked) [Ex. 1-326],71
22,CS(=O)(=O)c1ccc(CN2CCC(O)=C(C(=O)NCC(=O)O)C2=O)cc1 [Ex. 1-327],81
23,CS(=O)(=O)c1ccc(CN2C(=O)C(C(=O)NCC(=O)O)=C(O)CC23CCCCC3)cc1 [Ex. 1-328],63
24,O=C(O)CNC(=O)C1=C(O)C2(CCCCC2)N(Cc2ccc(-c3ccc(C(F)(F)F)cc3)cc2)C1=O [Ex. 1-329],87

row,Compound,inhibition at 1 µM [%]
1,CC(C)(C)c1ccc(-c2ccc(CN3C(=O)C(C(=O)NCC(=O)O)=C(O)C34CCCCC4)cc2)cc1 [Ex. 1-330],69
2,CS(=O)(=O)c1ccc(CN2CC3(CCCCC3)C(O)=C(C(=O)NCC(=O)O)C2=O)cc1 [Ex. 1-331],75
3,O=C(O)CNC(=O)C1=C(O)C2(CCCCC2)N(CC2CCC(c3ccccc3)CC2)C1=O (centres unmarked) [Ex. 1-332],73
4,Cc1ccc(Oc2ncc(CN3CCC(O)=C(C(=O)NCC(=O)O)C3=O)cc2C)cn1 [Ex. 1-333],91
5,O=C(O)CNC(=O)C1=C(O)C(F)(F)CN(Cc2ccc(C(F)(F)F)cc2)C1=O [Ex. 1-334],96
6,O=C(O)CNC(=O)C1=C(O)CCN(Cc2ccc(C(=O)O)cc2)C1=O [Ex. 1-335],73
7,O=C(O)CNC(=O)C1=C(O)CCN(Cc2ccc(-c3cccnc3)cn2)C1=O [Ex. 1-336],82
8,Cn1cc(CN2CCC(O)=C(C(=O)NCC(=O)O)C2=O)cn1 [Ex. 1-337],66
9,O=C(O)CNC(=O)C1=C(O)CCN(Cc2cnc(C(F)(F)F)nc2)C1=O [Ex. 1-338],71
10,Cc1nc(CN2CCC(O)=C(C(=O)NCC(=O)O)C2=O)c[nH]1 [Ex. 1-339],40
11,O=C(O)CNC(=O)C1=C(O)CCN(Cc2cnc(N3CCOCC3)s2)C1=O [Ex. 1-340],69
12,Cc1csc(CN2CCC(O)=C(C(=O)NCC(=O)O)C2=O)n1 [Ex. 1-341],66
13,CN1CCN(c2ccc(CN3CCC(O)=C(C(=O)NCC(=O)O)C3=O)cc2)CC1 [Ex. 1-342],57
14,CN(C)CCCOc1ccc(CN2CCC(O)=C(C(=O)NCC(=O)O)C2=O)cc1 [Ex. 1-343],51
15,O=C(O)CNC(=O)C1=C(O)CCN(Cc2ccc(OCCO)cc2)C1=O [Ex. 1-344],76
16,CN(C)CCNC(=O)c1ccc(CN2CCC(O)=C(C(=O)NCC(=O)O)C2=O)cc1 [Ex. 1-345],55
17,O=C(O)CNC(=O)C1=C(O)CCN(Cc2ccc(OCC(=O)O)cc2)C1=O [Ex. 1-346],80
18,O=C(O)CNC(=O)C1=C(O)CCN(Cc2ccc(C(=O)NCCO)cc2)C1=O [Ex. 1-347],55
19,O=C(O)CNC(=O)C1=C(O)CCN(Cc2ccc(C(=O)NCc3ccccn3)cc2)C1=O [Ex. 1-348],76
20,O=C(O)CNC(=O)C1=C(O)CCN(Cc2ccc(C(=O)NCCc3ccccn3)cc2)C1=O [Ex. 1-349],74
21,O=C(O)CNC(=O)C1=C(O)CCN(Cc2ccc(C(=O)NCCN3CCCC3=O)cc2)C1=O [Ex. 1-350],61
22,O=C(O)CNC(=O)C1=C(O)CCN(Cc2ccc(C(=O)NCC(=O)O)cc2)C1=O [Ex. 1-351],81
23,O=C(O)CNC(=O)C1=C(O)CCN(C[C@H]2C[C@@H]2c2ccc(F)cc2)C1=O [Ex. 1-352],91

# More lines, now with the values ahead:
row,inhibition at 1 µM [%],Compound
1,96,COc1cccc(Oc2ccc(CN3CCC(O)=C(C(=O)NCC(=O)O)C3=O)cn2)c1 [Ex. 1-354]
2,96,O=C(O)CNC(=O)C1=C(O)CCN(Cc2ccc(Oc3ccc(C(F)(F)F)cc3)cn2)C1=O [Ex. 1-356]
3,74,O=C(O)CNC(=O)C1=C(O)C2(CCC2)CN(Cc2ccc(OC(F)(F)F)c(Cl)c2)C1=O [Ex. 1-357]
4,88,COc1ccc(-c2ccc(CN3CC(C)(C)C(O)=C(C(=O)NCC(=O)O)C3=O)cc2)cn1 [Ex. 1-358]
5,69,CC1(C)CN(Cc2ccc(OC3CC3)cc2)C(=O)C(C(=O)NCC(=O)O)=C1O [Ex. 1-359]
6,93,COc1ccc(-c2ccc(CN3CC4(CCC4)C(O)=C(C(=O)NCC(=O)O)C3=O)cc2)cn1 [Ex. 1-361]
7,83,CC1(C)CN(Cc2ccc(C3CC3)cc2)C(=O)C(C(=O)NCC(=O)O)=C1O [Ex. 1-362]
8,77,O=C(O)CNC(=O)C1=C(O)C2(CCC2)CN(Cc2ccc(OC3CC3)cc2)C1=O [Ex. 1-363]
9,97,Cc1cccc(COc2ccc(CN3CCC(O)=C(C(=O)NCC(=O)O)C3=O)cc2)c1 [Ex. 1-364]
10,97,O=C(O)CNC(=O)C1=C(O)CCN(Cc2ccc(Oc3ccc(C(F)(F)F)nc3)cc2)C1=O [Ex. 1-365]
11,103,Cc1ccc(Oc2ccc(CN3CCC(O)=C(C(=O)NCC(=O)O)C3=O)cn2)cc1Cl [Ex. 1-366]
12,105,Cc1ccc(Oc2ccc(CN3CCC(O)=C(C(=O)NCC(=O)O)C3=O)cn2)cc1F [Ex. 1-367]
13,101,Cc1cc(Oc2ccc(CN3CCC(O)=C(C(=O)NCC(=O)O)C3=O)cn2)ccc1F [Ex. 1-368]
14,98,O=C(O)CNC(=O)C1=C(O)CCN(Cc2ccc(OCc3ccccc3Cl)cc2)C1=O [Ex. 1-369]
15,84,CC1(COc2ccc(CN3CCC(O)=C(C(=O)NCC(=O)O)C3=O)cc2)CC1 [Ex. 1-370]
16,90,O=C(O)CNC(=O)C1=C(O)CCN(CC2CC(c3ccc(F)cc3)C2)C1=O (centres unmarked) [Ex. 1-371]
17,89,O=C(O)CNC(=O)C1=C(O)CCN(Cc2ccc(OCc3cccnc3)cc2)C1=O [Ex. 1-372]
18,85,Cc1cccc(COc2ccc(CN3CCC(O)=C(C(=O)NCC(=O)O)C3=O)cc2)n1 [Ex. 1-373]
19,96,O=C(O)CNC(=O)C1=C(O)CCN(Cc2ccc(OCc3ccccc3)c(F)c2)C1=O [Ex. 1-374]
20,85,O=C(O)CNC(=O)C1=C(O)CCN(Cc2ccc(OCc3ccc(OC(F)(F)F)cc3)cc2)C1=O [Ex. 1-375]
21,100,CCc1ccc(Oc2ccc(CN3CCC(O)=C(C(=O)NCC(=O)O)C3=O)cn2)cc1 [Ex. 1-376]
22,96,CCCc1ccc(Oc2ccc(CN3CCC(O)=C(C(=O)NCC(=O)O)C3=O)cn2)cc1 [Ex. 1-377]
23,98,CC(C)c1ccc(Oc2ccc(CN3CCC(O)=C(C(=O)NCC(=O)O)C3=O)cn2)cc1 [Ex. 1-378]
24,84,Cc1cc(CN2CCC(O)=C(C(=O)NCC(=O)O)C2=O)ccc1OCC(F)(F)F [Ex. 1-379]
25,92,O=C(O)CNC(=O)C1=C(O)CCN(Cc2ccc(OCc3ccccc3)nc2)C1=O [Ex. 1-380]
